Measurements: patent US9272047B2, “Use of biological surfactant as anti-inflammatory agent and tissue preservative solution” (Shaperon Inc., priority 2007, dated 2016)
“Also recorded” adds a separate entry of the source.

Key:
[1] = system: interaction between fluorescein-labeled E. coli LPS and a CHO cell; test: Inhibition of the interaction between fluorescein (BODIPY)-labeled E. coli LPS and CHO cells, flow cytometry; format: cell-based, Chinese hamster; settings: CHO cells, 7-AAD(−) living cells
Method: Boron dipyrromethene difluoride (BODIPY), a fluorescein, labeled E. coli LPS and CHO cells were used. BODIPY-labeled LPS was reacted with sodium glycocholate in a glass tube at 37° C. for 14 hours. 2×10^5 CHO cells mixed with the reacting solution were plated per well in a 96-well plate, and then incubated at 37° C. for 14 hours. The incubated solution was stained with 7-amino-actinomycin D (7-AAD) and then analyzed by a flow cytometer. The analysis was performed at least twice per each treatment group and the obtained data were statistically processed by t-test. The result was P<0.05 in comparison with the experimental group in which CHO cells were treated with only BODIPY-LPS.
7-AAD(−) cells were selected in order to analyze living cells. […] Therefore, it could be realized that Inflammatory inhibition efficacy of sodium glycocholate shown in the LPS-stimulated inflammatory response was due to the blocking of the interaction between LPS and cells by the action of sodium glycocholate.

[2] = system: dendritic cells; test: Inhibition of E. coli LPS-induced activation of dendritic cells (CD40, CD80, CD86, I-Ab expression); format: cell-based, mouse; settings: 100 ng/ml E. coli LPS; CD11c(+)/7AAD(−) dendritic cells
Method: In order to assay the effect of sodium glycocholate on the activation procedure of antigen presenting cells, which is induced by E. coli LPS, cells were separated from the bone marrow of recombination activating gene 2 (Rag2) deficient mouse. The separated cells were plated at 2×10^5 cells/well in a 96-well plate and then treated with 1.5 ng/ml of granulocyt-macrophage colony-stimulating factor (GM-CSF) and 0.75 ng/ml of interleukin-4 followed by the differentiation of the cells into dentritic cells through 6-day incubation.
The dendritic cells were well mixed with sodium glycocholate and LPS. The mixtures were stimulated for 18 hours at 37° C., and stained with anti-CD40-FITC, anti-CD80-FITC, anti-I-Ab-PE, anti-CD86-PE, 7AAD and anti-CD11c-APC, then the cells were assayed via a flow cytometer. Each group was treated and assayed at least twice, and the results were statistically analyzed through t-test. The results were p<0.05 compared with the experimental groups treated by only LPS.
As shown FIGS. 9A-9B to 11A-11B, in order to assay only living dedritic cells, CD11c(+)/7AAD(−) cells were selected and then the expressions of dendritic cell costimulatory molecules and I-Ab were assayed.

[3] = system: macrophages; test: Inhibition of LPS-induced nitric oxide generation, macrophages (Griess); format: cell-based, mouse; settings: macrophages stimulated by LPS, 18 hours
Method: (§1) Then, the resulting dendritic cell mixtures were plated, by […] each, in a 96-well plate. Griss reagents were added to each well, and the 96-well plate was covered with foils and kept reacting for 15 min at room temperature. Absorbance at 540 nm was measured using an ELISA reader. Macrophages separated from abdomen were also treated with sodium glycocholate, sodium taurochenodeoxycholate and sodium taurodeoxycholate, respectively, and then stimulated with LPS for 18 hours. Thereafter, the same experiments as the dentritic cells were performed to the macrophages.

[4] = system: dendritic cells; test: Inhibition of LPS-induced nitric oxide generation, dendritic cells (Griess); format: cell-based, mouse; settings: dendritic cells stimulated by LPS, 18 hours
Method: as §1

[5] = system: ischemia-reperfusion renal injury; test: Ischemia-reperfusion renal injury model, organ preservative solution additive; format: in vivo, Sprague-Dawley rat; settings: 0.5 mg/ml in HTK solution
Method: The effect of sodium glycocholate to inflammatory response and renal function in an ischemia-reperfusion renal injury model, was evaluated. Five Sprague-Dawley (SD) male rats of 6 weeks age were used per each group, and foods and waters were not supplied to all the rats from 1 day before the experiment. The rats were anesthetized by the administration of 1 mg avertin (tribromoethanol/amyl hydrate)/100 g rat to the abdomen of the rats, and then laparotomized. All the blood flow to a left kidney was blocked by clamping the aorta and vena cava using vascular clamps. Before injecting the organ preservative solution, a vein of the left kidney was penetrated to minimize physical damage of the kidney due to the preservative solution pressure. Then, after histidine-tyroptophan-ketoglutarate (HTK) or a mixture solution of HTK and 0.5 mg/ml of sodium glycocholate was injected, at 4 ml/rat, into the vein, the damaged part of the vein was sutured by using 10-0 suture. After 30 min maintenance of the above state, the vascular clamps were removed and the laparotomized part was sutured. […] The concentration of IL-6 in the serum was measured by a enzyme-linked immunosorbent assay, and the concentrations of blood urea nitrogen (BUN), creatinine (Cre) and aspartate aminotransferase (AST) in the plasma were measured by an automated analyzer.

[6] = system: dendritic cells; test: Cytotoxicity to dendritic cells (7AAD, FACS); format: cell-based, mouse
Method: (§2) The cytotoxicity of sodium glycocholate to the CHO cells, dendritic cells, T cells which were used in the above Examples was assayed. FACS analysis was performed after staining with 7AAD. First, sodium glycocholate was kept in vitro for 1 hour at 37° C., and then mixed with cells. CHO cells or dendritic cells were incubated for 14 hours at 37° C., and T cells which were mixed with 14 hour-incubated dendritic cells, were incubated for 4 days. Then, each cell was stained with 7AAD and cell analysis were carried out by using a flow cytometer.

[7] = system: dendritic cell-mediated T cells; test: Cytotoxicity to dendritic cell-mediated T cells (7AAD, FACS); format: cell-based, mouse
Method: as §2

[8] = system: abdominal cells; test: Toxicity to abdominal cells separated from mice after abdominal administration (7AAD); format: in vivo, C57BL/6 mouse; settings: 5 mg (250 mg/kg) into abdomen, cells separated after 1 hour
Method: In order to assay the toxicity of sodium glycocholate to a mouse, experiments were performed to five C57BL/6 male mice of 7-9 weeks age per each group. Sodium glycocholate dissolved in PBS was kept in vitro for 1 hour at 37° C., and then the sodium glycocholate solution was administered into the abdomen of the mice followed by the cell analysis. After 1 hour from the administration, the abdominal cells were separated and stained with 7AAD, and then the abdominal cells were analyzed. Cells which were freezed and thawed at least five times were used for a positive control group in 7ADD staining. Experimental results were statistically analyzed by t-test, and p<0.05 compared with the experimental group which was not treated with sodium glycocholate.

[9] = system: Balb/c mice; test: Acute toxicity in mice, single administration into abdomen or tail vein; format: in vivo
Method: Acute toxicity was measured by using five Balb/c mice of 6 weeks age per group, which were once administered with sodium glycocholate, at different sodium glycocholate concentrations, into the abdomen and tail vein. […] However, 250 mg/kg of sodium glycocholate at which the above-mentioned effects of sodium glycocholate, and the sodium glycocholate concentration of below 250 mg/kg, 100 % of the mice survived (FIGS. 32A-32B). Also, 100 % of the mice survived at the sodium glycocholate concentration of not exceeding 150 mg/kg in the experiment where sodium glycocholate of different concentrations was adiministered into tail vein of mice (FIG. 33).

**Q.** What does the source list for `C[C@H](CCC(=O)NCC(=O)[O-])[C@H]1CC[C@H]2[C@@H]3[C@H](O)C[C@@H]4C[C@H](O)CC[C@]4(C)[C@H]3C[C@H](O)[C@]12C.[Na+]` [sodium glycocholate]?
**A.** interaction between BODIPY-LPS and the cell [1]: inhibited according to the increase of the concentration; increased expression of CD40, CD80, CD86 and I-Ab [2]: inhibited depending on the concentration; generation of NO [3]: inhibited; generation of NO [4]: inhibited; ischemia-reperfusion renal injury [5]: inhibited; cytotoxicity ([6]; 1 mg/ml): no significant cytotoxicity; also recorded: dose not have cytotoxicity; 7AAD(+) increase compared with the negative control group ([6]; 14 hours): 2-4%; cytotoxicity ([7]; 1 mg/ml): no significant cytotoxicity; also recorded: dose not have cytotoxicity; 7AAD(+) increase compared with the negative control group ([7]; 4 days): 2-4%; cytotoxicity for abdominal cells (survival rate of the abdominal cells versus PBS control) [8]: no significant difference; also recorded: dose not have cytotoxicity; mice survived ([9]; abdominal administration, 250 mg/kg and below): 100%; concentration (dose) at which toxicity was shown ([9]; abdominal administration, single dose): > 500 mg/kg; adverse effect ([9]; mouse test, dose of 250 mg/kg mouse): no adverse effect; mice survived ([9]; tail vein administration, not exceeding 150 mg/kg): 100%
